Results: PubChem BioAssay AID248 (DTP/NCI, 2004)
Where “and” joins values, the source holds several entries; their conditions need not be identical. Identical values can stand only once. Toxic doses and inconclusive results are not listed.

Tested on: L1210 leukemia ip in BDF1 mice, survival T/C
Experiment: NCI In Vivo Anticancer Drug Screen. Data for tumor model L1210 Leukemia (intraperitoneal) in B6D2F1 (BDF1) mice
Conditions: endpoint: mean survival time, higher = longer survival
Summary of the method: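 Read-out is survival time, reported as the treated-group measurement over the vehicle-control measurement.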

[1] = dose: 100.0 mg/kg/injection, schedule: Q01DX001 (ip), vehicle: Klucel (hydroxypropylcellulose) (HPC)
[2] = dose: 200.0 mg/kg/injection, schedule: Q01DX001 (ip), vehicle: Klucel (hydroxypropylcellulose) (HPC)
[3] = dose: 400.0 mg/kg/injection, schedule: Q01DX001 (ip), vehicle: Klucel (hydroxypropylcellulose) (HPC)
[4] = dose: 100.0 mg/kg/injection, schedule: Q01DX009 (ip), vehicle: Klucel (hydroxypropylcellulose) (HPC)
[5] = dose: 100.0 mg/kg/injection, schedule: Q04DX003 (ip), vehicle: Klucel (hydroxypropylcellulose) (HPC)
[6] = dose: 200.0 mg/kg/injection, schedule: Q01DX009 (ip), vehicle: Klucel (hydroxypropylcellulose) (HPC)
[7] = dose: 200.0 mg/kg/injection, schedule: Q04DX003 (ip), vehicle: Klucel (hydroxypropylcellulose) (HPC)
[8] = dose: 400.0 mg/kg/injection, schedule: Q01DX009 (ip), vehicle: Klucel (hydroxypropylcellulose) (HPC)
[9] = dose: 400.0 mg/kg/injection, schedule: Q04DX003 (ip), vehicle: Klucel (hydroxypropylcellulose) (HPC)
[10] = dose: 100.0 mg/kg/injection, schedule: Q04DX003 (ip), vehicle: saline with Tween-80
[11] = dose: 200.0 mg/kg/injection, schedule: Q04DX003 (ip), vehicle: saline with Tween-80
[12] = dose: 400.0 mg/kg/injection, schedule: Q04DX003 (ip), vehicle: saline with Tween-80
[13] = dose: 100.0 mg/kg/injection, schedule: Q01DX001 (ip), vehicle: other
[14] = dose: 200.0 mg/kg/injection, schedule: Q01DX001 (ip), vehicle: other
[15] = dose: 400.0 mg/kg/injection, schedule: Q01DX001 (ip), vehicle: other
[16] = dose: 100.0 mg/kg/injection, schedule: Q01DX001 (ip), vehicle: saline
[17] = dose: 200.0 mg/kg/injection, schedule: Q01DX001 (ip), vehicle: saline
[18] = dose: 400.0 mg/kg/injection, schedule: Q01DX001 (ip), vehicle: saline
[19] = dose: 100.0 mg/kg/injection, schedule: Q01DX009 (ip), vehicle: gum acacia
[20] = dose: 200.0 mg/kg/injection, schedule: Q01DX009 (ip), vehicle: gum acacia
[21] = dose: 100.0 mg/kg/injection, schedule: Q01DX001 (ip), vehicle: carboxymethylcellulose (CMC)
[22] = dose: 200.0 mg/kg/injection, schedule: Q01DX001 (ip), vehicle: carboxymethylcellulose (CMC)
[23] = dose: 400.0 mg/kg/injection, schedule: Q01DX001 (ip), vehicle: carboxymethylcellulose (CMC)

For CN1C(C(=O)c2ccc(-c3ccccc3)cc2)C1c1ccccc1 (stereo not given), the T/C [1] was 93 % of control, the T/C [2] was 97 % of control and the T/C [3] was 110 % of control.

With CC1(C)COC(c2ccccc2Br)=N1 the T/C [4] was 107 % of control, the T/C [5] was 104 % of control and 105 % of control and the T/C [6] was 104 % of control. The T/C [7] was 97 % of control and 105 % of control, the T/C [8] was 93 % of control and the T/C [9] was 93 % of control and 100 % of control.

Nc1nccc2n[nH]nc12 was tested, and the T/C [1] was 100 % of control, the T/C [5] was 103 % of control and the T/C [2] was 92 % of control. The T/C [7] was 101 % of control, the T/C [3] was 97 % of control and the T/C [9] was 101 % of control.

For CC(C)N1CCc2cc3c(cc2C1)OCO3, the T/C (dose: 5.0 mg/kg/injection, schedule: Q01DX001 (ip), vehicle: saline) was 101 % of control, the T/C (dose: 10.0 mg/kg/injection, schedule: Q01DX001 (ip), vehicle: saline) was 101 % of control and the T/C (dose: 20.0 mg/kg/injection, schedule: Q01DX001 (ip), vehicle: saline) was 110 % of control. For the same compound, the T/C (dose: 40.0 mg/kg/injection, schedule: Q01DX001 (ip), vehicle: saline) was 104 % of control and the T/C (dose: 80.0 mg/kg/injection, schedule: Q01DX001 (ip), vehicle: saline) was 101 % of control.

In the case of S=C(N/N=C/c1ccccn1)N/N=C/c1ccccn1, the T/C (dose: 20.0 mg/kg/injection, schedule: Q01DX009 (ip), vehicle: saline with Tween-80) is reported as 105 % of control, the T/C (dose: 33.0 mg/kg/injection, schedule: Q01DX009 (ip), vehicle: saline with Tween-80) is reported as 100 % of control and the T/C (dose: 50.0 mg/kg/injection, schedule: Q01DX009 (ip), vehicle: saline with Tween-80) is reported as 152 % of control. For the same compound, the T/C [10] was 103 % of control.

For CCNC(=O)c1ccc(NC(=O)Nc2ccc(C3=NCCN3)cc2)cc1NC(=O)Nc1ccc(C2=NCCN2)cc1, the T/C (dose: 37.5 mg/kg/injection, schedule: Q01DX015 (ip), vehicle: water) was 198 % of control, the T/C (dose: 46.0 mg/kg/injection, schedule: Q01DX001 (ip), vehicle: water) was 123 % of control and the T/C (dose: 50.0 mg/kg/injection, schedule: Q01DX015 (ip), vehicle: water) was 163 % of control. The T/C (dose: 62.5 mg/kg/injection, schedule: Q01DX Z (ip), vehicle: water) was 116 % of control, the T/C (dose: 93.0 mg/kg/injection, schedule: Q01DX001 (ip), vehicle: water) was 166 % of control and 189 % of control and the T/C (dose: 140.0 mg/kg/injection, schedule: Q01DX001 (ip), vehicle: water) was 171 % of control and 176 % of control and 193 % of control.

In the case of c1ccc2c(c1)C(=C1c3ccccc3-c3ccccc31)c1ccccc1-2, the T/C [1] is reported as 104 % of control and the T/C [2] is reported as 96 % of control.

For C[CH2][Ge]1([CH2]C)[CH2]C(C)=C(C)[CH2]1, the T/C (dose: 100.0 mg/kg/injection, schedule: Q04DX002 (ip), vehicle: saline with Tween-80) was 95 % of control and the T/C (dose: 200.0 mg/kg/injection, schedule: Q04DX002 (ip), vehicle: saline with Tween-80) was 95 % of control.

For c1ccc(NCc2ccco2)cc1, the T/C [10] was 106 % of control, the T/C [11] was 98 % of control and the T/C [12] was 106 % of control.

Cc1c([N+](=O)[O-])ccc2ccccc12 was tested, and the T/C [13] was 103 % of control, the T/C [5] was 108 % of control and the T/C [14] was 98 % of control. The T/C [7] was 101 % of control, the T/C [15] was 103 % of control and the T/C [9] was 100 % of control.

With Cc1cc(-c2ccc(N3C(=O)C=CC3=O)c(C)c2)ccc1N1C(=O)C=CC1=O the T/C [5] was 105 % of control and the T/C [7] was 100 % of control.

With C=CCNC(=O)SCCC(=O)O the T/C [16] was 93 % of control, the T/C [17] was 100 % of control and the T/C [18] was 102 % of control.

Cc1ccc(S(=O)(=O)N(CCCc2c(-c3ccccc3)nc(N)[nH]c2=O)c2ccccc2)cc1 was tested, and the T/C [19] was 101 % of control, the T/C [20] was 100 % of control and the T/C (dose: 400.0 mg/kg/injection, schedule: Q01DX009 (ip), vehicle: gum acacia) was 99 % of control.

In the case of CCCCn1c(=O)cc(C)c2ccccc21, the T/C [13] is reported as 95 % of control, the T/C [14] is reported as 92 % of control and the T/C [15] is reported as 94 % of control.

BrC(Br)c1ccccc1C(Br)Br was tested, and the T/C [19] was 98 % of control, the T/C (dose: 100.0 mg/kg/injection, schedule: Q04DX003 (ip), vehicle: gum acacia) was 99 % of control and the T/C [20] was 98 % of control. For the same compound, the T/C (dose: 200.0 mg/kg/injection, schedule: Q04DX003 (ip), vehicle: gum acacia) was 108 % of control and the T/C (dose: 400.0 mg/kg/injection, schedule: Q04DX003 (ip), vehicle: gum acacia) was 97 % of control.

With CC1(C)Cc2c(OC(N)=O)cccc2O1 the T/C (dose: 25.0 mg/kg/injection, schedule: Q01DX001 (ip), vehicle: Klucel (hydroxypropylcellulose) (HPC)) was 102 % of control and the T/C (dose: 50.0 mg/kg/injection, schedule: Q01DX001 (ip), vehicle: Klucel (hydroxypropylcellulose) (HPC)) was 98 % of control.

In the case of C#CCOC(=O)C1C2CCC(O2)C1C(=O)O (stereo not given), the T/C (dose: 1.25 mg/kg/injection, schedule: Q01DX009 (ip), vehicle: saline) is reported as 100 % of control and the T/C (dose: 2.5 mg/kg/injection, schedule: Q01DX009 (ip), vehicle: saline) is reported as 109 % of control.

O=C1N(c2ccccc2)C(=O)N1c1ccccc1 was tested, and the T/C [5] was 93 % of control and the T/C [7] was 96 % of control.

With CSCCOC(=O)C1C2CCC(O2)C1C(=O)O (stereo not given) the T/C (dose: 12.5 mg/kg/injection, schedule: Q04DX003 (ip), vehicle: Klucel (hydroxypropylcellulose) (HPC)) was 104 % of control.

For CCC1CCCCN1CCNc1ccc(CO)c2sc3ccccc3c(=O)c12 (stereo not given), the T/C (dose: 50.0 mg/kg/injection, schedule: Q01DX009 (ip), vehicle: Klucel (hydroxypropylcellulose) (HPC)) was 101 % of control, the T/C [4] was 115 % of control and the T/C [6] was 120 % of control.

In the case of Cc1cc(C)c(-c2c(O)c(Br)c(C)c(O)c2Br)c(C)c1Br, the T/C (dose: 75.0 mg/kg/injection, schedule: Q04DX003 (ip), vehicle: Klucel (hydroxypropylcellulose) (HPC)) is reported as 97 % of control, the T/C (dose: 150.0 mg/kg/injection, schedule: Q04DX003 (ip), vehicle: Klucel (hydroxypropylcellulose) (HPC)) is reported as 97 % of control and the T/C (dose: 300.0 mg/kg/injection, schedule: Q04DX003 (ip), vehicle: Klucel (hydroxypropylcellulose) (HPC)) is reported as 92 % of control.

With CC(C)OC(=O)Nc1cccc(C(F)(F)F)c1 the T/C (dose: 100.0 mg/kg/injection, schedule: Q04DX002 (ip), vehicle: Klucel (hydroxypropylcellulose) (HPC)) was 103 % of control, the T/C (dose: 200.0 mg/kg/injection, schedule: Q04DX002 (ip), vehicle: Klucel (hydroxypropylcellulose) (HPC)) was 88 % of control and the T/C (dose: 400.0 mg/kg/injection, schedule: Q04DX002 (ip), vehicle: Klucel (hydroxypropylcellulose) (HPC)) was 106 % of control.

O=C1CCN(C2CC(O)C(CO)C2)C(=O)N1 (stereo not given) was tested, and the T/C [16] was 101 % of control, the T/C [17] was 95 % of control and the T/C [18] was 101 % of control.

Cc1cc(O)c(O)c(C(C)(C)C)c1 was tested, and the T/C (dose: 100.0 mg/kg/injection, schedule: Q04DX002 (ip), vehicle: other) was 102 % of control and the T/C (dose: 200.0 mg/kg/injection, schedule: Q04DX002 (ip), vehicle: other) was 87 % of control.

For O=C(O)c1cccc(C2CC2)c1, the T/C [13] was 95 % of control, the T/C (dose: 100.0 mg/kg/injection, schedule: Q04DX003 (ip), vehicle: other) was 97 % of control and the T/C [14] was 97 % of control. The T/C (dose: 200.0 mg/kg/injection, schedule: Q04DX003 (ip), vehicle: other) was 97 % of control, the T/C [15] was 98 % of control and the T/C (dose: 400.0 mg/kg/injection, schedule: Q04DX003 (ip), vehicle: other) was 97 % of control.

With CCc1ccccc1NC(=O)Nc1ccccc1 the T/C [4] was 94 % of control, the T/C [5] was 103 % of control and the T/C [6] was 98 % of control. The T/C [7] was 94 % of control, the T/C [8] was 105 % of control and the T/C [9] was 95 % of control.

With Cn1cc([N+](=O)[O-])c(=O)n(C)c1=O the T/C (dose: 50.0 mg/kg/injection, schedule: Q01DX001 (ip), vehicle: carboxymethylcellulose (CMC)) was 93 % of control, the T/C [21] was 98 % of control and the T/C [22] was 102 % of control. For the same compound, the T/C [23] was 104 % of control.

In the case of COC(=O)C1(CCOC(C)=O)CCCCC12OCCO2 (stereo not given), the T/C [21] is reported as 94 % of control, the T/C [22] is reported as 100 % of control and the T/C [23] is reported as 91 % of control.

With CNC(=O)Nc1ccccc1 the T/C [10] was 94 % of control, the T/C [11] was 90 % of control and the T/C [12] was 94 % of control.

With COc1ccc(CCO)cc1 the T/C [10] was 92 % of control, the T/C [11] was 101 % of control and the T/C [12] was 95 % of control.
